Where two headings read alike, the source gives them in different places.
Experiments:
[1] = test system: HIV-1IIIb; test: microbe, parasite or virus in culture; format: cell-based
[2] = test system: HIV-1BaL; test: p24 endpoint antiviral assay in macrophage cultures; format: cell-based; settings: Human immunodeficiency virus 1, Macrophage, read-out: mean EC50
[3] = Cytotoxicity assay; format: cell-based; settings: human, MT-4 cells
[4] = Cytotoxicity assay; format: cell-based; settings: human, Huh-7 cells
[5] = Cytotoxicity assay; format: cell-based; settings: human, Gal-HepG2 cells
[6] = Cytotoxicity assay; format: cell-based; settings: human, primary CD4+ T-lymphocytes
[7] = test system: HIV-1 recombinant strains resistant to NRTIs, NNRTIs, INSTIs, PIs or MIs; format: cell-based
[8] = molecular target: CA monomer (Human immunodeficiency virus type 1 group M subtype B, UniProt P03348); test: biochemical; format: binding
[9] = test system: primary human hepatocytes; test: Metabolic stability of [3H]GS-6207 in primary human hepatocytes; format: in vitro ADME; settings: [3H]GS-6207, primary human hepatocytes
[10] = Study GS-US-200-4070: safety and tolerability in healthy participants; format: in vivo, human; settings: for Acne / Any AE / Back pain / Dizziness / Headache / Injection site bruising / Injection site erythema / Injection site induration / Injection site nodule / Injection site pain / Injection site pruritus / Injection site swelling / Nausea / Oropharyngeal pain / Skin mass / Viral upper respiratory tract infection: healthy
[11] = test system: HIV-1 DNA; test: Quantitation of HIV-1 DNA forms in infected MT-2 cells by PCR; settings: GS-6207 at 1.25 nM
[12] = test system: HIV-1IIIb; test: In vitro two-drug combination study in HIV-1IIIB-infected MT-2 cells

**Q.** Which EC50 ([1]; Human immunodeficiency virus 1, MT4, read-out: mean EC50) does the source give for `CC(C)(C#Cc1ccc(-c2ccc(Cl)c3c(NS(C)(=O)=O)nn(CC(F)(F)F)c23)c([C@H](Cc2cc(F)cc(F)c2)NC(=O)Cn2nc(C(F)(F)F)c3c2C(F)(F)[C@@H]2C[C@H]32)n1)S(C)(=O)=O` [GS-6207] here?
**A.** 0.105 nM

**Q.** And the EC95 ([1]; calculated from EC50 and Hill coefficient)?
**A.** 0.23 nM

**Q.** And the EC50 [2]?
**A.** 0.056 nM

**Q.** What about the CC50 [3] of the same molecule?
**A.** 24700 ± 18300 nM

**Q.** And the CC50 [4]?
**A.** > 44400 nM

**Q.** And the CC50 [5]?
**A.** > 44400 nM

**Q.** And the CC50 [6]?
**A.** > 50000 nM

**Q.** What about the Fold resistance ([7]; HIV-1 mutant 6TAMs (NRTI)) of the same molecule?
**A.** 0.2 ± 0.1 (3)

**Q.** What about the Fold resistance ([7]; HIV-1 mutant E92Q+N155H (INSTI)) of the same molecule?
**A.** 0.8 ± 0.4 (3)

**Q.** What about the Fold resistance ([7]; HIV-1 mutant E138K+Q148K (INSTI)) of the same molecule?
**A.** 0.6 ± 0.3 (3)

**Q.** And the Fold resistance ([7]; HIV-1 mutant G48V+V82A+L90M (PI))?
**A.** 0.5 ± 0.2 (3)

**Q.** And the Fold resistance ([7]; HIV-1 mutant G48V+V82S (PI))?
**A.** 0.4 ± 0.2 (3)

**Q.** And the Fold resistance ([7]; HIV-1 mutant G140S+Q148R (INSTI))?
**A.** 0.8 ± 0.3 (3)

**Q.** And the Fold resistance ([7]; HIV-1 mutant I84V+L90M (PI))?
**A.** 0.3 ± 0.1 (3)

**Q.** What about the Fold resistance ([7]; HIV-1 mutant K65R (NRTI)) of the same molecule?
**A.** 0.6 ± 0.2 (3)

**Q.** What about the Fold resistance ([7]; HIV-1 mutant K103N+Y181C (NNRTI)) of the same molecule?
**A.** 0.6 ± 0.2 (3)

**Q.** What about the Fold resistance ([7]; HIV-1 mutant L100I+K103N (NNRTI)) of the same molecule?
**A.** 0.5 ± 0.2 (3)

**Q.** And the Fold resistance ([7]; HIV-1 mutant M46I+I50V (PI))?
**A.** 0.7 ± 0.2 (3)

**Q.** What about the Fold resistance ([7]; HIV-1 mutant M184V (NRTI)) of the same molecule?
**A.** 0.3 ± 0.3 (3)

**Q.** What about the Fold resistance ([7]; HIV-1 mutant N155H+Q148R (INSTI)) of the same molecule?
**A.** 1.2 ± 0.7 (3)

**Q.** And the Fold resistance ([7]; HIV-1 mutant V7A in SP1 (MI))?
**A.** 0.8 ± 0.4 (8)

**Q.** What about the Fold resistance ([7]; HIV-1 mutant V230I in CA (MI)) of the same molecule?
**A.** 0.7 ± 0.2 (6)

**Q.** And the Fold resistance ([7]; HIV-1 mutant Y188L (NNRTI))?
**A.** 0.5 ± 0.1 (3)

**Q.** What about the Kd [8] of the same molecule?
**A.** 2.5 nM

**Q.** And the hepatic extraction [9]?
**A.** 0.8%

**Q.** What about the “predicted rate of hepatic clearance” value [9] of the same molecule?
**A.** 0.17 mL/min/kg

**Q.** And the Acne ([10]; 30 mg (n = 8))?
**A.** 0 n (%)

**Q.** What about the “Any AE” value ([10]; 30 mg (n = 8)) of the same molecule?
**A.** 4 (50) n (%)

**Q.** What about the Back pain ([10]; 30 mg (n = 8)) of the same molecule?
**A.** 0 n (%)

**Q.** And the Dizziness ([10]; 30 mg (n = 8))?
**A.** 0 n (%)

**Q.** And the Headache ([10]; 30 mg (n = 8))?
**A.** 2 (25) n (%)

**Q.** And the Injection site bruising ([10]; 30 mg (n = 8))?
**A.** 0 n (%)

**Q.** What about the Injection site erythema ([10]; 30 mg (n = 8)) of the same molecule?
**A.** 1 (13) n (%)

**Q.** And the Injection site induration ([10]; 30 mg (n = 8))?
**A.** 0 n (%)

**Q.** What about the Injection site nodule ([10]; 30 mg (n = 8)) of the same molecule?
**A.** 0 n (%)

**Q.** And the Injection site pain ([10]; 30 mg (n = 8))?
**A.** 0 n (%)

**Q.** What about the Injection site pruritus ([10]; 30 mg (n = 8)) of the same molecule?
**A.** 1 (13) n (%)

**Q.** What about the Injection site swelling ([10]; 30 mg (n = 8)) of the same molecule?
**A.** 1 (13) n (%)

**Q.** What about the Nausea ([10]; 30 mg (n = 8)) of the same molecule?
**A.** 1 (13) n (%)

**Q.** And the Oropharyngeal pain ([10]; 30 mg (n = 8))?
**A.** 1 (13) n (%)

**Q.** And the Skin mass ([10]; 30 mg (n = 8))?
**A.** 0 n (%)

**Q.** And the “Viral upper respiratory tract infection” value ([10]; 30 mg (n = 8))?
**A.** 0 n (%)

**Q.** What about the Acne ([10]; 100 mg (n = 8)) of the same molecule?
**A.** 0 n (%)

**Q.** What about the “Any AE” value ([10]; 100 mg (n = 8)) of the same molecule?
**A.** 8 (100) n (%)

**Q.** What about the Back pain ([10]; 100 mg (n = 8)) of the same molecule?
**A.** 0 n (%)

**Q.** And the Dizziness ([10]; 100 mg (n = 8))?
**A.** 0 n (%)

**Q.** What about the Headache ([10]; 100 mg (n = 8)) of the same molecule?
**A.** 1 (13) n (%)

**Q.** And the Injection site bruising ([10]; 100 mg (n = 8))?
**A.** 0 n (%)

**Q.** And the Injection site erythema ([10]; 100 mg (n = 8))?
**A.** 5 (63) n (%)

**Q.** And the Injection site induration ([10]; 100 mg (n = 8))?
**A.** 0 n (%)

**Q.** What about the Injection site nodule ([10]; 100 mg (n = 8)) of the same molecule?
**A.** 5 (63) n (%)

**Q.** And the Injection site pain ([10]; 100 mg (n = 8))?
**A.** 3 (38) n (%)

**Q.** And the Injection site pruritus ([10]; 100 mg (n = 8))?
**A.** 0 n (%)

**Q.** And the Injection site swelling ([10]; 100 mg (n = 8))?
**A.** 5 (63) n (%)

**Q.** What about the Nausea ([10]; 100 mg (n = 8)) of the same molecule?
**A.** 0 n (%)

**Q.** And the Oropharyngeal pain ([10]; 100 mg (n = 8))?
**A.** 0 n (%)

**Q.** What about the Skin mass ([10]; 100 mg (n = 8)) of the same molecule?
**A.** 0 n (%)

**Q.** What about the “Viral upper respiratory tract infection” value ([10]; 100 mg (n = 8)) of the same molecule?
**A.** 0 n (%)

**Q.** What about the Acne ([10]; 300 mg (n = 8)) of the same molecule?
**A.** 0 n (%)

**Q.** What about the “Any AE” value ([10]; 300 mg (n = 8)) of the same molecule?
**A.** 7 (88) n (%)

**Q.** And the Back pain ([10]; 300 mg (n = 8))?
**A.** 2 (25) n (%)

**Q.** What about the Dizziness ([10]; 300 mg (n = 8)) of the same molecule?
**A.** 1 (13) n (%)

**Q.** What about the Headache ([10]; 300 mg (n = 8)) of the same molecule?
**A.** 2 (25) n (%)

**Q.** What about the Injection site bruising ([10]; 300 mg (n = 8)) of the same molecule?
**A.** 1 (13) n (%)

**Q.** And the Injection site erythema ([10]; 300 mg (n = 8))?
**A.** 6 (75) n (%)

**Q.** And the Injection site induration ([10]; 300 mg (n = 8))?
**A.** 6 (75) n (%)

**Q.** What about the Injection site nodule ([10]; 300 mg (n = 8)) of the same molecule?
**A.** 3 (38) n (%)

**Q.** What about the Injection site pain ([10]; 300 mg (n = 8)) of the same molecule?
**A.** 6 (75) n (%)

**Q.** And the Injection site pruritus ([10]; 300 mg (n = 8))?
**A.** 1 (13) n (%)

**Q.** And the Injection site swelling ([10]; 300 mg (n = 8))?
**A.** 1 (13) n (%)

**Q.** What about the Nausea ([10]; 300 mg (n = 8)) of the same molecule?
**A.** 1 (13) n (%)

**Q.** And the Oropharyngeal pain ([10]; 300 mg (n = 8))?
**A.** 0 n (%)

**Q.** And the Skin mass ([10]; 300 mg (n = 8))?
**A.** 1 (13) n (%)

**Q.** And the “Viral upper respiratory tract infection” value ([10]; 300 mg (n = 8))?
**A.** 0 n (%)

**Q.** And the Acne ([10]; 450 mg (n = 8))?
**A.** 2 (25) n (%)

**Q.** And the “Any AE” value ([10]; 450 mg (n = 8))?
**A.** 6 (75) n (%)

**Q.** And the Back pain ([10]; 450 mg (n = 8))?
**A.** 0 n (%)

**Q.** And the Dizziness ([10]; 450 mg (n = 8))?
**A.** 1 (13) n (%)

**Q.** And the Headache ([10]; 450 mg (n = 8))?
**A.** 0 n (%)

**Q.** And the Injection site bruising ([10]; 450 mg (n = 8))?
**A.** 0 n (%)

**Q.** What about the Injection site erythema ([10]; 450 mg (n = 8)) of the same molecule?
**A.** 3 (38) n (%)

**Q.** And the Injection site induration ([10]; 450 mg (n = 8))?
**A.** 2 (25) n (%)

**Q.** And the Injection site nodule ([10]; 450 mg (n = 8))?
**A.** 1 (13) n (%)

**Q.** And the Injection site pain ([10]; 450 mg (n = 8))?
**A.** 3 (38) n (%)

**Q.** What about the Injection site pruritus ([10]; 450 mg (n = 8)) of the same molecule?
**A.** 1 (13) n (%)

**Q.** What about the Injection site swelling ([10]; 450 mg (n = 8)) of the same molecule?
**A.** 0 n (%)

**Q.** And the Nausea ([10]; 450 mg (n = 8))?
**A.** 0 n (%)

**Q.** What about the Oropharyngeal pain ([10]; 450 mg (n = 8)) of the same molecule?
**A.** 0 n (%)

**Q.** And the Skin mass ([10]; 450 mg (n = 8))?
**A.** 1 (13) n (%)

**Q.** What about the “Viral upper respiratory tract infection” value ([10]; 450 mg (n = 8)) of the same molecule?
**A.** 2 (25) n (%)

**Q.** And the safety and tolerability ([10]; single SC 30 to 450 mg, healthy participants)?
**A.** generally safe and well tolerated

**Q.** And the “HIV cDNA synthesis (late RT products)” value [11]?
**A.** did not alter

**Q.** And the “formation of 2-LTR circles” value [11]?
**A.** significantly reduced

**Q.** And the “formation of integrated proviruses” value [11]?
**A.** significantly reduced

**Q.** And the Synergy volume [12]?
**A.** 18 ± 8 μM^2.%
